Where a SMILES comes first, the peptide text is derived from it. Bridges are numbered along the chain shown (N, C = ends).

One compound from publication PMC6198068, “Discovery of a Novel Nav1.7 Inhibitor From Cyriopagopus albostriatus Venom With Potent Analgesic Efficacy” (Frontiers in Pharmacology, 2018) can be followed below.

In experiment [1] the target is T1, Nav1.4/N655D/Q657E (Rattus norvegicus, UniProt P15390, N655D/Q657E).
T1 construct: expressed in transfected cells; host or cells: HEK293T
The experiment in a line: Whole-cell patch-clamp, Nav1.4/N655D/Q657E in HEK293T cells. The class given is cell-based. The text has this:
(§1) The cDNA genes encoding rat Nav1.4 and human Nav1.7 were subcloned into vectors pRGB4 and pcDNA3.1-mod, respectively. Mutations of rNav1.4 (N655D, Q657E, and N655D/Q657E) and hNav1.7 (D816N, E818Q, and D816N/E818Q) were constructed using the Gene Tailor Site-Directed Mutagenesis system (Invitrogen, Carlsbad, CA, United States), according to the manufacturer’s instructions. Nav1.2–Nav1.7 and mutant plasmids together with eGFP were transiently transfected into HEK293T cells while Nav1.8 together with eGFP was transiently transfected into ND7/23 cells by Lipofectamine 2000 (Invitrogen, Carlsbad, CA, United States). Additionally, plasmids β1- and β2-eGFP encoding the human β1 and β2 subunits, respectively, were co-transfected with those encoding WT Nav1.7 and Nav1.7 mutations in HEK293T cells. […] Cells with green fluorescent protein fluorescence were selected for whole-cell patch-clamp recordings 24 h after transfection.
(§2) Whole-cell patch-clamp recordings were performed at room temperature (20–25°C) using an EPC 10 USB Patch Clamp Amplifier (HEKA, Elektronik, Lambrecht, Germany). […] Data was analyzed by software Igo Pro 6.10A (WaveMetrics, Lake Oswego, OR, United States), SigmaPlot 10.0 (Sigma-Aldrich, St. Louis, MO, United States), OriginPro 8 (OriginLab Corp., Northampton, MA, United States), and GraphPad Prism 5 (GraphPad Software, San Diego, CA, United States). […]
A general note: The patch-clamp technique gives a direct electrical read-out from membranes.

For experiment [2], the target named is T2, Nav1.7 (Homo sapiens, UniProt Q15858).
T2 construct: expressed in transfected cells; host or cells: HEK293T
The experiment in a line: Steady-state fast inactivation and fast inactivation time constants of Nav1.7. In kind it is cell-based. To be noted: 0.2 μM.
From the text: as §1, with “States).” for “States). Additionally, plasmids β1- and β2-eGFP encoding the human β1 and β2 subunits, respectively, were co-transfected with those encoding WT Nav1.7 and Nav1.7 mutations in HEK293T cells.”
as §2
Fast inactivation time constants were calculated by fitting current decay traces with a single exponential function using the I–V protocol described above. […]

For experiment [3], the system named is Nav1.7/E818Q. Description: Whole-cell patch-clamp, Nav1.7/E818Q in HEK293T cells. In kind it is cell-based, human. To be noted: 1 μM, n = 5 cells.
From the text: as §1, §2

Experiment [4] deals with T3, rat Nav1.4 (Rattus norvegicus, UniProt P15390).
T3 construct: expressed in transfected cells; host or cells: HEK293T
The experiment in a line: Whole-cell patch-clamp, WT Nav1.4 in HEK293T cells. The class given is cell-based. The source says:
The cDNA genes encoding rat Nav1.4 and human Nav1.7 were subcloned into vectors pRGB4 and pcDNA3.1-mod, respectively. Mutations of rNav1.4 (N655D, Q657E, and N655D/Q657E) and hNav1.7 (D816N, E818Q, and D816N/E818Q) were constructed using the Gene Tailor Site-Directed Mutagenesis system (Invitrogen, Carlsbad, CA, United States), according to the manufacturer’s instructions. Nav1.2–Nav1.7 and mutant plasmids together with eGFP were transiently transfected into HEK293T cells while Nav1.8 together with eGFP was transiently transfected into ND7/23 cells by Lipofectamine 2000 (Invitrogen, Carlsbad, CA, United States). Additionally, plasmids β1- and β2-eGFP encoding the human β1 and β2 subunits, respectively, were co-transfected with those encoding WT Nav1.7 and Nav1.7 mutations in HEK293T cells. Human Nav1.9 was transfected into ND7/23 cells according to a previous report ([Zhou et al., 2017]). HEK293T and ND7/23 cells were grown under standard tissue culture conditions (5% CO2, 37°C) in Dulbecco’s modified Eagle’s medium (DMEM) supplemented with 10% fetal bovine serum (FBS). Cells with green fluorescent protein fluorescence were selected for whole-cell patch-clamp recordings 24 h after transfection.
Whole-cell patch-clamp recordings were performed at room temperature (20–25°C) using an EPC 10 USB Patch Clamp Amplifier (HEKA, Elektronik, Lambrecht, Germany). Suction pipettes with access resistance of 2.0–3.0 MΩ were made from borosilicate glass capillary tubes (thickness = 0.225 mm) using a two-step vertical microelectrode puller (PC-10; Narishige, Tokyo, Japan). The standard pipet solution contained (in mM): 140 CsCl, 10 NaCl, 1 EGTA, and 10 HEPES (pH 7.4). Bath solution contained (in mM): 140 NaCl, 2 CaCl2, 1 MgCl2, 5 KCl, 20 HEPES (pH 7.4), and 10 glucose. All chemicals were the products of Sigma-Aldrich (St. Louis, MO, United States) and dissolved in water. […] Data was analyzed by software Igo Pro 6.10A (WaveMetrics, Lake Oswego, OR, United States), SigmaPlot 10.0 (Sigma-Aldrich, St. Louis, MO, United States), OriginPro 8 (OriginLab Corp., Northampton, MA, United States), and GraphPad Prism 5 (GraphPad Software, San Diego, CA, United States). […]
Concentration-response curves were fitted using the following Hill logistic equation: y = fmax − (fmax − fmin)/(1 + (x/IC50)^n), where fmax and fmin, respectively, represent the channel’s maximum and minimum responses to toxins, fmin was set to 0, x represents toxin concentration and n is an empirical Hill coefficient. […] Peak inward currents from steady-state inactivation were normalized by the maximum current amplitude and fit with a Boltzmann equation I = Imin + 1/(1 + exp[Vm − V1/2/k]) where I is the current amplitude measured during the test depolarization, V1/2 is the midpoint of inaction, and k is the slope factor. […]

T3 sequence (P15390 whole entry): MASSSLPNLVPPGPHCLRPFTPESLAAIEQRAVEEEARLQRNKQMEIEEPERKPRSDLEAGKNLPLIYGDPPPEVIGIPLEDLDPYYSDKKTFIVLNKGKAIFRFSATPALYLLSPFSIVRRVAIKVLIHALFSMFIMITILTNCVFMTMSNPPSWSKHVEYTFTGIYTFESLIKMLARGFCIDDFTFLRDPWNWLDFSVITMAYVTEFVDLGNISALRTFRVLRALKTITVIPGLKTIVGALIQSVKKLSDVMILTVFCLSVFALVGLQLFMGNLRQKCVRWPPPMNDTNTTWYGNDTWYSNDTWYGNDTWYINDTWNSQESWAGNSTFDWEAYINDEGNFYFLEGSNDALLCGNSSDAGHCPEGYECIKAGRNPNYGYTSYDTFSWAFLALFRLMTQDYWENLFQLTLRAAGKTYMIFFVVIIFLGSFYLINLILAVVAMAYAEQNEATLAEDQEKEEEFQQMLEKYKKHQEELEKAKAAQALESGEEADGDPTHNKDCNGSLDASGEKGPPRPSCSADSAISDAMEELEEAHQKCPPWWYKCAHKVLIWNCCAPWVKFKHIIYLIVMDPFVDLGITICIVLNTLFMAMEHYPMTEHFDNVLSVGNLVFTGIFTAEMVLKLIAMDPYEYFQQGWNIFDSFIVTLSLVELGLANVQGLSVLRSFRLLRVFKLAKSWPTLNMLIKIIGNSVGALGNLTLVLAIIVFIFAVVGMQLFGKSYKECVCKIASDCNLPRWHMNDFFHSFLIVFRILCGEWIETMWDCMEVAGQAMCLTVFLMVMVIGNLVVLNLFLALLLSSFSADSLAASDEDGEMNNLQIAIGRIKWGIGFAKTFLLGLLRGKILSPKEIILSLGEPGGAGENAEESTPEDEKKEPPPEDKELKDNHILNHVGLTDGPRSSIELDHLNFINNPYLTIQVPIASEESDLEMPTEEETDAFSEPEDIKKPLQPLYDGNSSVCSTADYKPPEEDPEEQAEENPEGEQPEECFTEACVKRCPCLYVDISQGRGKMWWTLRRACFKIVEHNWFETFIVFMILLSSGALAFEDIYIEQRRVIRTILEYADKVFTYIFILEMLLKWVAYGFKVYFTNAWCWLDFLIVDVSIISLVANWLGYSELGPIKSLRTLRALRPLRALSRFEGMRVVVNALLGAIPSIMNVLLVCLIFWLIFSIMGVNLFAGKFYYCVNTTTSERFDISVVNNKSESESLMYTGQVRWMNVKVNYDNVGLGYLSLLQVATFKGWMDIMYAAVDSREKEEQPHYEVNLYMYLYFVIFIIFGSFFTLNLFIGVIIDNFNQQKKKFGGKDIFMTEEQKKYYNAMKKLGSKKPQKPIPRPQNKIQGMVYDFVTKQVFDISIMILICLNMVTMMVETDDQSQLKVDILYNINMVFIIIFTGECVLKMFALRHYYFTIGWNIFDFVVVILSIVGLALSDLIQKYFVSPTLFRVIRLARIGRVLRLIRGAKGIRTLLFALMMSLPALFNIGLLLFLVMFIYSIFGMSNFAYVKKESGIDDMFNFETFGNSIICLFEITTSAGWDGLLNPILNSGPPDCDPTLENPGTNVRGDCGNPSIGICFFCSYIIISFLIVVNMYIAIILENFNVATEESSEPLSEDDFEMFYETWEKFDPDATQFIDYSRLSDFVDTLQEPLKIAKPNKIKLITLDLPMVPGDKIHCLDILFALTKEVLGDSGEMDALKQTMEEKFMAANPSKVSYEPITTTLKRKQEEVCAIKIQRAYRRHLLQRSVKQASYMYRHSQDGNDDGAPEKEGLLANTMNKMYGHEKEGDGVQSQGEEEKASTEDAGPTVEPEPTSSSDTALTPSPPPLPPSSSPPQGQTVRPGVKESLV
T1 sequence (P15390 whole entry N655D/Q657E): as the sequence (P15390 whole entry) above, with N655D, Q657E counted along it
T2 sequence (O60939 30-215): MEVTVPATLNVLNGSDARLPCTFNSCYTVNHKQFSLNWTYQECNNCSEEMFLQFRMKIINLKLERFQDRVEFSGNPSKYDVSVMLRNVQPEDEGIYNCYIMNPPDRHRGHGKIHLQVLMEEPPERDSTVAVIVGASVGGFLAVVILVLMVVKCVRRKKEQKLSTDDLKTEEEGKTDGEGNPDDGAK
T2 sequence (Q15858 other isoform, or with tags, fused parts or gaps): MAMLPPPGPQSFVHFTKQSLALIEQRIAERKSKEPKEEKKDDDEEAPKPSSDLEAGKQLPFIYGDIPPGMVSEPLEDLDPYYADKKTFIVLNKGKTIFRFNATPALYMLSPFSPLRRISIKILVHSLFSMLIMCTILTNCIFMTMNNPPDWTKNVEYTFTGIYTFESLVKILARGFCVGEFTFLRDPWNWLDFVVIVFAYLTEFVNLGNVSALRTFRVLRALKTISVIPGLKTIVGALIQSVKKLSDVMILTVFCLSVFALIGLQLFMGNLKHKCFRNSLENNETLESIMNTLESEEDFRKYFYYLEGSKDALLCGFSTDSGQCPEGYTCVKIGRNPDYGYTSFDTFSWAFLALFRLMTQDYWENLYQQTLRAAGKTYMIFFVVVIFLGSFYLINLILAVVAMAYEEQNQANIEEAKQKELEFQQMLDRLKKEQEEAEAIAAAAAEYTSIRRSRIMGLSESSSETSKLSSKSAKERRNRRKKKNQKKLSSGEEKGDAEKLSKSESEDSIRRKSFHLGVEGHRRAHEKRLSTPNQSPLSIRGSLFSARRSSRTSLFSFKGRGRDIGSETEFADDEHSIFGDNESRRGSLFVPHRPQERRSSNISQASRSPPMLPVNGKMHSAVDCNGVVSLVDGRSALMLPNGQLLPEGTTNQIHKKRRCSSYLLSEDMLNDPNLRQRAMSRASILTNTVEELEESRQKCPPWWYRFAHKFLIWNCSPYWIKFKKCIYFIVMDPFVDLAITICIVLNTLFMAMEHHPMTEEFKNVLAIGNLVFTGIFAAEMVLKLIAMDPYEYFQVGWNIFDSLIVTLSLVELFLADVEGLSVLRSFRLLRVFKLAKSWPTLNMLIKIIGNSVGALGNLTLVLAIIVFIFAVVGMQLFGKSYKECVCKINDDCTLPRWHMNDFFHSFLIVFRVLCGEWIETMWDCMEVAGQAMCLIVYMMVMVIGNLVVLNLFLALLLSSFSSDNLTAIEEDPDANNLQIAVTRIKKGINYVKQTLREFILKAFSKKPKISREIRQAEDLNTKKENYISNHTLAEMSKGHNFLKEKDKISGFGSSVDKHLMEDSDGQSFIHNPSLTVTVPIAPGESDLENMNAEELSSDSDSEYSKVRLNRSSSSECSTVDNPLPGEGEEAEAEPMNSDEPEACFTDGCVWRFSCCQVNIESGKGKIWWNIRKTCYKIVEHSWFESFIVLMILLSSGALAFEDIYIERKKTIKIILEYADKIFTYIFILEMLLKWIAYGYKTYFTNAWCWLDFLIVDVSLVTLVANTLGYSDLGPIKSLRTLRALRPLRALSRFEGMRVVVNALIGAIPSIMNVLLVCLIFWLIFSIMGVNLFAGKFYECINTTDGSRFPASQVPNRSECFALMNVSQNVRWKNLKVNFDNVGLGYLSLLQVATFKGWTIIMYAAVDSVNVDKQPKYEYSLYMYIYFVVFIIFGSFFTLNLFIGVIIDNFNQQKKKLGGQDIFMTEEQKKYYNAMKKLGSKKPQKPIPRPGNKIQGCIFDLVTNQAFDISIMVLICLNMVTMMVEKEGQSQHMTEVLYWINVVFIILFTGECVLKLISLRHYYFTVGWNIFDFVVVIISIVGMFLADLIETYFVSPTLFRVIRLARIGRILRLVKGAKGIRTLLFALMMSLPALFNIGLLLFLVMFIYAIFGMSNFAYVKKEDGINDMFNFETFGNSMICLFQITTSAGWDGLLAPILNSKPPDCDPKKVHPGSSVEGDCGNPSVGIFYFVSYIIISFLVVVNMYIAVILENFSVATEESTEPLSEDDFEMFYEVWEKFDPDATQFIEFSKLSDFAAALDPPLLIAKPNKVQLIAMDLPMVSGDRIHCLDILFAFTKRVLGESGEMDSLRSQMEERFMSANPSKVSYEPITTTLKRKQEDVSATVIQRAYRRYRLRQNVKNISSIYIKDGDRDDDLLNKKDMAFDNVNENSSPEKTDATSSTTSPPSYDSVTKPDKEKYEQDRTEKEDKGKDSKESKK
T2 sequence (Q07699 19-218, further chain): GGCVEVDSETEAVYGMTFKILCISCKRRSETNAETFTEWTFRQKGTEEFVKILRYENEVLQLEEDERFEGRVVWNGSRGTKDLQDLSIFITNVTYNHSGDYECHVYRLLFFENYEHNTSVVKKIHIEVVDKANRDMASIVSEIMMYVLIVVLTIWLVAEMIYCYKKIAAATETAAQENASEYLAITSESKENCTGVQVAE

As to `CC(C)C[C@H](NC(=O)[C@H](CC(=O)O)NC(=O)[C@H](Cc1ccc(O)cc1)NC(=O)[C@H](CCCCN)NC(=O)[C@@H]1CSSC[C@@H]2NC(=O)[C@H](CCCCN)NC(=O)[C@H](CC(=O)O)NC(=O)[C@H](CC(N)=O)NC(=O)[C@H](CO)NC(=O)[C@@H]3CCCN3C(=O)[C@H](CC(N)=O)NC(=O)[C@@H]3CSSC[C@H](NC(=O)[C@H](C(C)C)NC(=O)[C@H](CC(C)C)NC(=O)[C@H](CO)NC(=O)[C@H](CO)NC(=O)[C@H](CO)NC(=O)[C@H](CCCCN)NC(=O)[C@H](CSSC[C@H](NC(=O)[C@H](C)N)C(=O)N[C@@H](CC(C)C)C(=O)NCC(=O)N[C@@H](Cc4ccccc4)C(=O)NCC(=O)N[C@@H](CCC(=O)O)C(=O)N[C@@H](CCCCN)C(=O)N3)NC2=O)C(=O)N[C@@H](CO)C(=O)N[C@@H](CCC(N)=O)C(=O)N[C@@H](CCCCN)C(=O)N[C@@H](Cc2c[nH]cn2)C(=O)N[C@@H](CCCCN)C(=O)N[C@@H](Cc2c[nH]c3ccccc23)C(=O)N1)C(=O)O` [Ca2a] (H-ACLGFGEKCNPSNDKCCKSSSLVCSQKHKWCKYDL-OH; disulfide 2-17, 9-24, 16-31 (inferred); N-terminus and C-terminus assumed), the “inhibition of peak current of Nav1.4/N655D/Q657E” value in experiment [1] (1 μM, n = 4–5 cells) is “significantly inhibited”. The IC50 (usually the concentration needed to halve the response being measured) in experiment [1] (mean ± SEM, n = 4–5 cells per data point) is 238 ± 26.1 nM; in experiment [4] (skeletal muscle isoform, whole-cell patch-clamp, HEK293T), more than 10 µM. Also, the “fast inactivation time constants of Nav1.7” value in experiment [2] (between −15 and 10 mV, P > 0.05, two-way ANOVA, n = 6–11 cells) is on record as “did not alter the inactivation time constants”. In experiment [2] (control −70.2 ± 0.8 mV, 500-ms prepulse, mean ± SEM, n = 10), the “half-inactivation voltage of Nav1.7 (steady-state fast inactivation)” value is −70.7 ± 1.1 mV. In experiment [3], the “activity on Nav1.7/E818Q” value is reported as “no activity”. Also, the “inhibitory effect on WT Nav1.4” value in experiment [4] (1 μM, HEK293T, n = 4–5 cells) is recorded as “no inhibitory effect”. In experiment [4] (skeletal isoform Nav1.4 vs Nav1.7), the “selectivity for Nav1.7 against Nav1.4” value is on record as “more than 100 fold”. For the same compound, in experiment [4] (up to 10 μM, HEK293T), the “inhibitory effect on Nav1.4 currents” value was “no inhibitory effects”.
